Data published in ChEMBL document CHEMBL1149563 (Bioorg Med Chem Lett, 2007).

How the values were obtained:
Androgen receptor [1] = target: T1, Androgen receptor (Mus musculus, UniProt P19091); test: Agonist activity at androgen receptor in mouse C2C12 cells by receptor transactivation assay; type: functional, cell-based
T1 sequence (P19091 whole entry): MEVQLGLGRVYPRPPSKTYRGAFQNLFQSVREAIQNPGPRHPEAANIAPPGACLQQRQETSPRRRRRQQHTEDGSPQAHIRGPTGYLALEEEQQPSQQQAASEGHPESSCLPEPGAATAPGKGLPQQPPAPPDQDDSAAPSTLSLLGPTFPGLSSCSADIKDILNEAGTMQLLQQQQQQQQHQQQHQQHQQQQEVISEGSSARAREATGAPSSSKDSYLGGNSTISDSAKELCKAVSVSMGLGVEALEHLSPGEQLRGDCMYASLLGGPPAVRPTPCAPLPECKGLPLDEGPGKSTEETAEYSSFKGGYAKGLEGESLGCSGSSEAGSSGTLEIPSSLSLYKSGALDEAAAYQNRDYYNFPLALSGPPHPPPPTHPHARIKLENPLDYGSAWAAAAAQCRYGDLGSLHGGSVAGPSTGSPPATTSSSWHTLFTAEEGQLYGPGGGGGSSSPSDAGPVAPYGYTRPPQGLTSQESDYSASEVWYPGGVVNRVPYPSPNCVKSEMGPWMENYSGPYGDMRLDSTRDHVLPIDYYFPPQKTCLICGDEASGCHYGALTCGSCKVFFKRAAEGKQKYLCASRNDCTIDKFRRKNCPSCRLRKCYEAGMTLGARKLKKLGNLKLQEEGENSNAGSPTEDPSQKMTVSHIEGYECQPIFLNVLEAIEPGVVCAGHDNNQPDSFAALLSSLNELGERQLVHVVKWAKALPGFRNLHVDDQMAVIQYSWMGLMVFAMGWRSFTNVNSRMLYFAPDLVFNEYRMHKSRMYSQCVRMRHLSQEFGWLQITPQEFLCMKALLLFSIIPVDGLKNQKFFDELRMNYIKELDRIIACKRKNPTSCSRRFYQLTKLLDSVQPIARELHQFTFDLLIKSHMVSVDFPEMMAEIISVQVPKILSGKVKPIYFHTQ

[2] = Oral bioavailability in rat at 10 mg/kg; type: ADME, organism-based; settings: in vivo
[3] = Cmax in rat at 5 mg/kg, iv or 10 mg/kg, po; type: ADME, organism-based; settings: in vivo
Rattus norvegicus [4] = test: Effect on […] in castrated rat at 10 mg/kg, po after 14 days relative to intact rat; type: functional
Rattus norvegicus [5] = test: Effect on levator ani muscle weight in castrated rat at 10 mg/kg, po after 14 days relative to intact rat; type: functional
[6] = Clearance in rat at 5 mg/kg, iv or 10 mg/kg, po; type: ADME, organism-based; settings: in vivo
Androgen receptor [7] = target: T2, Androgen receptor (Homo sapiens, UniProt P10275); test: Displacement of [3H]DHT from human androgen receptor in MDA453 cells; type: cell-based
T2 sequence (P10275 whole entry): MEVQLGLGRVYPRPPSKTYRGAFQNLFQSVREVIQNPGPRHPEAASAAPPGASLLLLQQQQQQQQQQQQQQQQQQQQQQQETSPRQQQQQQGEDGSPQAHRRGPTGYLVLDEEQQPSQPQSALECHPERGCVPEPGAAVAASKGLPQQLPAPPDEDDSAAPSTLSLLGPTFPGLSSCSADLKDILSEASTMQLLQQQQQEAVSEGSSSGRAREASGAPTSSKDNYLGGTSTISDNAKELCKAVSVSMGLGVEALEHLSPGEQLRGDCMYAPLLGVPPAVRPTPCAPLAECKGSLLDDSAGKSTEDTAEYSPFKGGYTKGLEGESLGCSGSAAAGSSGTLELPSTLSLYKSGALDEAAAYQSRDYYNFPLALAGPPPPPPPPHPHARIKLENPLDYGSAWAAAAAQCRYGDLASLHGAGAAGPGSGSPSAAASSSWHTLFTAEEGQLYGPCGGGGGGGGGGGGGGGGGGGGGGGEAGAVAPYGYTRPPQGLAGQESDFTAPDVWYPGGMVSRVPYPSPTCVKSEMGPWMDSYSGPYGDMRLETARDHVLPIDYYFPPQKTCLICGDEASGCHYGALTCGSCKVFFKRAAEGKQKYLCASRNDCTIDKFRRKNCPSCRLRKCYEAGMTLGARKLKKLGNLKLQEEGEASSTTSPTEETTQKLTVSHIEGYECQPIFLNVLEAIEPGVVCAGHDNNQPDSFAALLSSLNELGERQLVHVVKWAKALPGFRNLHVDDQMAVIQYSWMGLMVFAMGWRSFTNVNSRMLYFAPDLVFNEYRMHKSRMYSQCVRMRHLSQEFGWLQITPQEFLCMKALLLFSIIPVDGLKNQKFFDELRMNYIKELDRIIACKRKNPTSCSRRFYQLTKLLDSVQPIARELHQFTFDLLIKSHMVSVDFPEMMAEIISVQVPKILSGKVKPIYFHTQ

[8] = Half life in rat at 5 mg/kg, iv or 10 mg/kg, po; type: ADME, organism-based; settings: in vivo
Androgen receptor [9] = target: T1, Androgen receptor
Description: Antagonist activity at androgen receptor in mouse C2C12 cells by receptor transactivation assay

Rattus norvegicus [10] = test: Effect on levator ani muscle weight in castrated rat at 0.3 mg/kg, sc after 14 days relative to intact rat; type: functional; settings: route subcutaneous
Rattus norvegicus [11] = test: Effect on […] in castrated rat at 0.3 mg/kg, sc after 14 days relative to intact rat; type: functional; settings: route subcutaneous

Compound	EC50 (Androgen receptor [1]) [nM]	Ki (Androgen receptor [7]) [nM]	further results
Cc1c(N2C(=O)[C@@H]3[C@H](O)CCN3C2=O)ccc(C#N)c1Cl	0.44		
Cc1c(N2C(=O)[C@@H]3[C@H](O)CCN3S2(=O)=O)ccc(C#N)c1Cl	11.9	0.45	bioavailability [2]: 53%; Cmax [3]: 8.4 µM; Activity (Rattus norvegicus [4]): 10%; Activity (Rattus norvegicus [5]): 70%; clearance [6]: 12.8 mL/min/kg; half-life [8]: 54 min
Cc1c(N2C(=O)[C@@H]3[C@@H](O)CCN3S2(=O)=O)ccc(C#N)c1Cl	2960	29	
Cc1c(N2C[C@@H]3[C@@H](O)CCN3S2(=O)=O)ccc(C#N)c1Cl		189	
Cc1c(N2C[C@@H]3[C@H](O)CCN3S2(=O)=O)ccc(C#N)c1Cl	7730	14	
COC(=O)[C@@H]1[C@H](O)CCN1S(=O)(=O)Nc1ccc(C#N)c(Cl)c1C	7460		
COC(=O)[C@@H]1[C@H](O)CCN1S(=O)(=O)c1ccc(C#N)c(Cl)c1C	> 3000	36	IC50 (Androgen receptor [9]): 278 nM
Cc1c(N2C(=O)[C@]3(C)[C@H](O)CCN3S2(=O)=O)ccc(C#N)c1Cl	1250	8.2	
Cc1c(N2C(=O)[C@@H]3C[C@H](O)CN3S2(=O)=O)ccc(C#N)c1Cl	3520	44	
Cc1c(N2C(C)[C@@H]3[C@@H](O)CCN3S2(=O)=O)ccc(C#N)c1Cl (stereo not given in full)	8960	20	
Cc1c(NS(=O)(=O)N2CC[C@@H](O)[C@H]2C(=O)O)ccc(C#N)c1Cl	2.8		
N#Cc1ccc(N2C(=O)[C@@H]3[C@H](O)CCN3C2=O)c2ccccc12	2.3		
CCC(=O)O[C@H]1CC[C@H]2[C@@H]3CCC4=CC(=O)CC[C@]4(C)[C@H]3CC[C@]12C [TESTOSTERONE PROPIONATE]	2.8	0.25	Activity (Rattus norvegicus [10]): 70%; Activity (Rattus norvegicus [11]): 70%
